# Assay results from ChEMBL document CHEMBL1130828, “Synthesis and biological activities of phenyl piperazine-based peptidomimetic growth hormone secretagogues” (Bioorg Med Chem Lett, 1998).
# Organism: Rattus norvegicus
# Assay: Concentration required for GH-releasing activity in the rat pituitary cell assay was determined in vitro
# Assay type: functional
# Settings: Pituitary gland cell
row,SMILES,EC50 [nM]
1,COC(=O)CS(=O)(=O)Nc1ccccc1N1CCN(C(=O)[C@@H](CCCc2ccccc2)NC(=O)C(C)(C)N)CC1,4.5
2,CC(C)(N)C(=O)N[C@H](Cc1c[nH]c2ccccc12)C(=O)N1CCN(c2ccccc2Cl)CC1,760
3,COc1ccccc1N1CCN(C(=O)[C@@H](Cc2c[nH]c3ccccc23)NC(=O)C(C)(C)N)CC1,490
4,Cc1ccccc1N1CCN(C(=O)[C@@H](Cc2c[nH]c3ccccc23)NC(=O)C(C)(C)N)CC1,150
5,CC(C)c1ccccc1N1CCN(C(=O)[C@@H](Cc2c[nH]c3ccccc23)NC(=O)C(C)(C)N)CC1,210
6,CC(C)(N)C(=O)N[C@H](CCCc1ccccc1)C(=O)N1CCN(c2ccccc2NS(=O)(=O)C(F)(F)F)CC1,200
7,CC(C)(N)C(=O)N[C@H](CCCc1ccccc1)C(=O)N1CCN(c2ccccc2NS(=O)(=O)CC(=O)O)CC1,2.3
8,CC(C)(N)C(=O)N[C@H](CCCc1ccccc1)C(=O)N1CCN(c2ccccc2NS(C)(=O)=O)CC1,6.3
9,CC(C)S(=O)(=O)Nc1ccccc1N1CCN(C(=O)[C@@H](CCCc2ccccc2)NC(=O)C(C)(C)N)CC1,2.8
10,Cc1ccccc1N1CCN(C(=O)[C@@H](CCCc2ccccc2)NC(=O)C(C)(C)N)CC1,100
